SMILES strings stand for the structures.

In one experiment the target is T1, Cathepsin B (Homo sapiens, UniProt P07858).
T1 construct: purchased Calbiochem 219364
Nature of the experiment: Inhibition and rate of inactivation of cathepsin B (Cbz-Phe-Arg-AMC hydrolysis). It is filed as biochemical. Conditions: pH 6.0, 0.1 mM substrate, read-out: k2 (second order rate constant of inactivation), C = Cathepsin B.

In experiment [1] the test system is calpain I in Molt-4 cells (α-spectrin breakdown products). The experiment can be described thus: Inhibition of calpain activation in intact Molt-4 cells (calpain-generated spectrin breakdown products). Conditions: Homo sapiens, calcium and ionophore (ionomycin), read-out: % Inhibition of BDPs (10 μM). It is filed as cell-based.

Regarding `CC[C@H](NC(=O)[C@H](CC(C)C)NC(=O)OCc1ccccc1)C(=O)COn1nnc2ccccc21` [Example 5, 1-[N-[N-Benzyloxycarbonyl-L-leucyl]-3S-3-amino-2-oxopentyloxy] benzotriazole], the kinact/KI on Cathepsin B is 443000 M⁻¹ s⁻¹. Besides, the inhibition at 10 µM in experiment [1] was 56%.

Consider `CC(C)C[C@H](NC(=O)OCc1ccccc1)C(=O)N[C@@H](Cc1ccccc1)C(=O)COn1nnc2ccccc2c1=O` [Example 28, 1-[N-[N-Benzyloxycarbonyl-L-leucyl]-3S-4-phenyl-3-amino-2-oxobutyloxy]-3-benzotriazin-4-one], for which, at Cathepsin B, the kinact/KI was 7000 M⁻¹ s⁻¹. In addition, the inhibition at 10 µM in experiment [1] was 68%.

As to `CC(C)C[C@H](NC(=O)OCc1ccccc1)C(=O)N[C@@H](Cc1ccccc1)C(=O)COn1nnc2cccnc21` [Example 6, 3-[N-[N-Benzyloxycarbonyl-L-leucyl]-3S-4-phenyl-3-amino-2-oxobutyloxy]-3H-triazolo[4,5-b]pyridine], the kinact/KI at Cathepsin B is 107000 M⁻¹ s⁻¹. Besides, the inhibition at 10 µM in experiment [1] is 63%.

Consider `CC(C)C[C@H](NC(=O)OCc1ccccc1)C(=O)N[C@@H](Cc1ccccc1)C(=O)COn1nnc2ccccc21` [Example 3, 1-[N-[N-Benzyloxycarbonyl-L-leucyl]-3S-4-phenyl-3-amino-2-oxobutyloxy]benzotriazole], for which, at Cathepsin B, the kinact/KI turned out to be 117000 M⁻¹ s⁻¹. In experiment [1], the inhibition at 10 µM was 67%.
